The results in this text go back to ChEMBL document CHEMBL1201862, “PubChem BioAssay data set” (2004).

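Following 48 hours of exposure in 96-well plates, responses at five concentrations were used to interpolate endpoints linearly. Here, GI50 denotes the concentration required for 50% inhibition of growth.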 Active and inactive are the calls of the source. Cut-off read from the data, not from the text of the source: active = GI50 up to about 1.1 µM and inactive = higher.

Test systems include A549; ACHN; CAKI-1; COLO 205; DU-145; HOP-62; KM12; LOX IMVI; MDA-N; NCI-H226; NCI-H522; OVCAR-4; PC-3; RPMI-8226; SK-MEL-2; SK-OV-3; SR; SW-620; T47D; U-251.
Common to all, as to assay: NCI tumour cell line growth inhibition, 48 h

With `CN1CCc2cc(N)cc3c2C1Cc1ccc2c(c1-3)OCO2` (stereo not given), the GI50 in the test with A549 was 37.2 µM (inactive); in the test on ACHN, 26.3 µM (inactive); in the test on CAKI-1 it was 41.5 µM (inactive); in the test on COLO 205, 30.1 µM (inactive); in the test with DU-145 it was 32.8 µM (inactive); with HOP-62, 34.8 µM (inactive). For the same compound, the GI50 in the test with KM12 is 13.5 µM (inactive); in the test with LOX IMVI, 17.7 µM (inactive); in the test with MDA-N, 19.2 µM (inactive); with NCI-H226, 34 µM (inactive); in the test with NCI-H522, 18.1 µM (inactive); with OVCAR-4, 30 µM (inactive). Further, the GI50 in the test on PC-3 was 42.7 µM (inactive); with RPMI-8226 it was 15.9 µM (inactive); in the test on SK-MEL-2, 36.1 µM (inactive); in the test with SK-OV-3, 44.9 µM (inactive); in the test on SR it was 11 µM (inactive); in the test on SW-620 it was 31 µM (inactive). Also, the figures for the GI50 in the test on T47D and in the test with U-251 were 36.1 µM (inactive) and 36.8 µM (inactive), respectively.

For `C/C=C/c1cc2c(cc1O)CC[C@@H]1[C@@H]2CC[C@]2(C)[C@@H](O)CC[C@@H]12`, the GI50 was 0.0536 µM (active) in the test on A549; 0.0594 µM (active) in the test with ACHN; 0.0144 µM (active) in the test with CAKI-1; 11.7 µM (inactive) in the test on COLO 205; 0.0849 µM (active) in the test with DU-145; 0.0791 µM (active) in the test with HOP-62. Moreover, the GI50 with KM12 is 1.24 µM (inactive); in the test on LOX IMVI, 0.0357 µM (active); in the test on MDA-N it was 0.0215 µM (active); with NCI-H226, 0.226 µM (active); with NCI-H522, < 0.0142 µM (active); in the test with OVCAR-4, 13.6 µM (inactive). Further, the GI50 was 2.37 µM (inactive) in the test on PC-3; 0.0264 µM (active) with RPMI-8226; 1.51 µM (inactive) in the test on SK-MEL-2; 0.183 µM (active) in the test on SK-OV-3; 0.0259 µM (active) with SR; 0.04 µM (active) in the test with SW-620. For the same compound, the GI50 in the test with T47D is 14.8 µM (inactive); in the test on U-251 it was 0.0315 µM (active).

For the compound `CN(C)CCSCCO`, the GI50 in the test on A549, with ACHN, in the test with CAKI-1, with COLO 205, in the test with DU-145 and in the test with HOP-62 was > 100 µM (inactive) each time. For the same compound, the GI50 in the test on KM12, in the test on LOX IMVI, in the test with MDA-N, in the test on NCI-H226, with NCI-H522 and in the test with OVCAR-4 was > 100 µM (inactive) each time. Moreover, the GI50 in the test on PC-3, in the test on RPMI-8226, in the test on SK-MEL-2, in the test on SK-OV-3, in the test on SR and in the test on SW-620 was > 100 µM (inactive) each time. For the same compound, the GI50 in the test on T47D and in the test with U-251 was > 100 µM (inactive) in each case.
